Measurements taken from EPA's ToxRefDB 2.

Key:
mouse [1] = details: Multigenerational reproductive toxicity study, cd1, Oral, Water, dose end: 2 generation
rat [2] = details: Subchronic oral toxicity in rodents, fischer, Feed, dose end: 13 week, group: systemic
rabbit = details: Prenatal developmental toxicity study; new zealand white; Oral; Gavage/Intubation; dose end: 19 GD; group: maternal; reproductive / reproductive performance / pregnancy / pregnancy + reproductive / reproductive performance / premature delivery / premature …
rat [3] = details: Prenatal developmental toxicity study, sprague dawley, Oral, Gavage/Intubation, dose end: 20 GD
mouse [4] = details: Multigenerational reproductive toxicity study, cd1, Oral, Water, dose end: 2 generation; remark: listed apart in the source
rat [5] = details: Prenatal developmental toxicity study, sprague dawley, Oral, Gavage/Intubation, dose end: 15 GD
mouse [6] = details: Subchronic oral toxicity in rodents, b6c3f1, Feed, dose end: 13 week, group: systemic, systemic / pathology microscopic / liver / degeneration + systemic / pathology microscopic / liver / hyalinization
mouse [7] = details: Combined chronic toxicity/carcinogenicity, b6c3f1, Oral, Feed, dose end: 2 year, group: systemic
[8] = group: offspring, developmental / developmental malformation / eye / absent + developmental / developmental malformation / mouth / jaw / cleft lip + …
[9] = group: offspring, systemic / in life observation / body weight / offspring (pup) weight
[10] = group: parental, systemic / in life observation / water consumption / water consumption + systemic / organ weight / liver / absolute + systemic / in life …
[11] = group: parental, systemic / pathology gross / sperm measure / sperm count
[12] = group: reproductive, reproductive / offspring survival early / live fetuses / live fetuses
[13] = group: reproductive, reproductive / reproductive performance / fertility / fertility + reproductive / offspring survival early / live fetuses / live fetuses
[14] = systemic / clinical chemistry / creatinine / creatinine + systemic / clinical chemistry / urea nitrogen / urea nitrogen + systemic / in life…
[15] = systemic / clinical chemistry / urea nitrogen / urea nitrogen
[16] = group: developmental, developmental / developmental malformation / bone / absent + developmental / developmental malformation / bone / double-tipped + …
[17] = group: maternal, reproductive / reproductive performance / gestational length / gestational length + systemic / pathology microscopic / kidney / dilatation…
[18] = group: offspring, developmental / developmental malformation / bone / absent + developmental / developmental malformation / bone / fused + developmental / …
[19] = group: parental, systemic / in life observation / mortality / mortality
[20] = group: reproductive, reproductive / reproductive performance / fertility / fertility + reproductive / offspring survival early / litter size / litter size
[21] = group: developmental, developmental / developmental malformation / bone / absent + developmental / developmental malformation / bone / delayed ossification + …
[22] = group: maternal, systemic / in life observation / body weight / body weight + systemic / in life observation / body weight / body weight gain + reproductive…
[23] = systemic / pathology microscopic / liver / degeneration
[24] = systemic / pathology microscopic / liver / degeneration + systemic / pathology microscopic / lung / hyperplasia + systemic / pathology …

OCCO [Ethylene glycol]
LOAEL (mouse [1]; [8]): > 2000 mg/kg/day
NOAEL (mouse [1]; [8]): ≥ 2000 mg/kg/day
LEL (mouse [1]; [9]): 667 mg/kg/day
NEL (mouse [1]; [9]): < 667 mg/kg/day
LOAEL (mouse [1]; [10]): > 2000 mg/kg/day
NOAEL (mouse [1]; [10]): ≥ 2000 mg/kg/day
LEL (mouse [1]; [11]): 667 mg/kg/day
NEL (mouse [1]; [11]): < 667 mg/kg/day
LEL (mouse [1]; [12]): 1330 mg/kg/day
NEL (mouse [1]; [12]): 667 mg/kg/day
LOAEL (mouse [1]; [13]): > 2000 mg/kg/day
NOAEL (mouse [1]; [13]): ≥ 2000 mg/kg/day
LOAEL (rat [2]; [14]): 1250 mg/kg/day
NOAEL (rat [2]; [14]): 625 mg/kg/day
LEL (rat [2]; [15]): 160 mg/kg/day
NEL (rat [2]; [15]): < 160 mg/kg/day
LEL (rabbit): 2000 mg/kg/day
LOAEL (rabbit): > 2000 mg/kg/day
NEL (rabbit): 1000 mg/kg/day
NOAEL (rabbit): ≥ 2000 mg/kg/day
LOAEL (rat [3]; [16]): > 2250 mg/kg/day
NEL (rat [3]; [16]): 250 mg/kg/day
NOAEL (rat [3]; [16]): ≥ 2250 mg/kg/day
LEL (rat [3]; group: developmental, developmental / developmental malformation / kidney / size + systemic / in life observation / body weight / fetal weight): 1250 mg/kg/day
LEL (rat [3]; [17]): 1250 mg/kg/day
LOAEL (rat [3]; [17]): > 2250 mg/kg/day
NEL (rat [3]; [17]): 250 mg/kg/day
NOAEL (rat [3]; [17]): ≥ 2250 mg/kg/day
LEL (mouse [4]; [18]): 1330 mg/kg/day
LOAEL (mouse [4]; [18]): > 1330 mg/kg/day
NEL (mouse [4]; [18]): 667 mg/kg/day
NOAEL (mouse [4]; [18]): ≥ 1330 mg/kg/day
LEL (mouse [4]; [19]): 667 mg/kg/day
LOAEL (mouse [4]; [19]): > 1330 mg/kg/day
NEL (mouse [4]; [19]): 333 mg/kg/day
NOAEL (mouse [4]; [19]): ≥ 1330 mg/kg/day
NEL (mouse [4]; group: reproductive, reproductive / reproductive performance / fertility / fertility): 667 mg/kg/day
LEL (mouse [4]; [20]): 1330 mg/kg/day
LOAEL (mouse [4]; [20]): > 1330 mg/kg/day
NOAEL (mouse [4]; [20]): ≥ 1330 mg/kg/day
LEL (rat [5]; [21]): 2500 mg/kg/day
LOAEL (rat [5]; [21]): > 2500 mg/kg/day
NEL (rat [5]; [21]): < 2500 mg/kg/day
NOAEL (rat [5]; [21]): ≥ 2500 mg/kg/day
LEL (rat [5]; [22]): 2500 mg/kg/day
LOAEL (rat [5]; [22]): > 2500 mg/kg/day
NEL (rat [5]; [22]): < 2500 mg/kg/day
NOAEL (rat [5]; [22]): ≥ 2500 mg/kg/day
LEL (mouse [6]): 3750 mg/kg/day
LOAEL (mouse [6]): > 7500 mg/kg/day
NEL (mouse [6]): 1880 mg/kg/day
NOAEL (mouse [6]): ≥ 7500 mg/kg/day
LEL (mouse [7]; [23]): 1500 mg/kg/day
NEL (mouse [7]; [23]): < 1500 mg/kg/day
LOAEL (mouse [7]; [24]): > 12000 mg/kg/day
NOAEL (mouse [7]; [24]): ≥ 12000 mg/kg/day
